These results are taken from PubChem BioAssay (NCI).

“And” between values parts separate entries of the source, which are not always exact repeats. Equal values may be shown once.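 96-well plates; 48 h exposure; 5 concentrations. Endpoints by linear interpolation between flanking doses. Not reached: highest tested concentration assigned. At the GI50, growth is halved. TGI denotes the concentration required for complete inhibition of growth.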

Common to all, as to test: NCI anticancer screen, dose series, 48 h
Assay [1] concerns HOP-92 NSCLC.
In assay [2] the test system is U251 CNS.
Assay [3] deals with SN12C renal.
Assay [4] deals with OVCAR-4 ovarian.
Assay [5] relates to SF-268 CNS.
The test system of assay [6] is RXF 393 renal.
Assay [7] has as its system COLO 205 colon.
Assay [8] concerns OVCAR-3 ovarian.
Assay [9] has as its system RPMI-8226 leukemia.
For assay [10], the system named is LOX IMVI melanoma.

With `COC1=CC(c2ccc[nH]2)=N/C1=C\c1[nH]c(C)c(C(=O)OC(C)C)c1C`, the GI50 in assay [1] is 0.0239 µM; in assay [2], 0.0355 µM; in assay [3] it was 0.068 µM; in [4], 0.0531 µM; in assay [5], 0.0608 µM; in assay [6], 0.0584 µM. Besides, the GI50 in [7] was 0.0733 µM; in assay [8] it was 0.05 µM; in [9], 0.223 µM; in assay [10], 0.0163 µM. For the same compound, the TGI in assay [1] is 0.0815 µM; in assay [2] it was 0.82 µM; in assay [3], 2.01 µM; in [4], 4.62 µM; in assay [5], 5.25 µM; in assay [6] it was 1.03 µM. The TGI came to 1.46 µM in assay [7], 0.586 µM in [8], 2.47 µM in assay [9] and 0.0372 µM in assay [10].

With `CC/C=C\CCC/C=C1/C(=O)C=C[C@@H]1C/C=C\CCCC(=O)OC`, the GI50 in assay [1] was 9.77 µM; in assay [2], 4.22 µM; in assay [3] it was 2.92 µM; in [4], 4.27 µM; in [5] it was 4.79 µM; in assay [6], 2.6 µM. The GI50 in [7] is 4.1 µM; in [8], 3.39 µM; in [9], 2.93 µM; in assay [10], 1.59 µM. In addition, the TGI in [1] was 23.6 µM; in assay [2], 14.5 µM; in assay [3], 8.18 µM; in assay [4], 16.4 µM; in [5], 22.1 µM; in assay [6] it was 6.02 µM. In addition, the TGI is 12.5 µM in [7], 11.8 µM in assay [8], 8.15 µM in [9] and 3.28 µM in assay [10].

As to `COC1=CC(=O)c2nc(-c3ccncc3)[nH]c2C1=O`, the GI50 is 31.4 µM in assay [1]; over 100 µM in assay [2]; over 100 µM in assay [3]; 45.3 µM in assay [4]; over 100 µM in assay [5]; over 100 µM in assay [6]. Also, the GI50 in assay [7], in [8], in assay [9] and in [10] was over 100 µM each time. The TGI in [1], in assay [2], in assay [3], in assay [4], in assay [5] and in assay [6] was over 100 µM throughout. Also, the TGI in assay [7], in assay [8], in assay [9] and in assay [10] was over 100 µM in each case.

Consider `Cn1cnc([N+](=O)[O-])c1Sc1nnc(-c2cccnc2)n1C`, for which the TGI was 30.6 µM in [1]; over 100 µM in assay [2]; 60.5 µM in [3]; 56.6 µM in assay [4]; over 95.7 µM in assay [5]; 23.9 µM in assay [6]. Further, the TGI in assay [7] amounted to 28.9 µM; in assay [8], 35.1 µM; in [9], 49.4 µM; in [10] it was 34.9 µM.

Regarding `NC(=O)c1cccc2cn(-c3ccc([C@@H]4CCCNC4)cc3)nc12`, the GI50 in assay [1] was 21.5 µM; in [2], 12.6 µM; in assay [3], 9.15 µM; in assay [4] it was 16.6 µM; in [5], 9.13 µM; in assay [6] it was 13.5 µM. Also, the GI50 in assay [7] was 13.5 µM; in assay [8] it was 14.8 µM; in assay [9], 22.5 µM; in assay [10], 8.16 µM. For the same compound, the TGI in assay [1] was determined as 89.9 µM; in assay [2], 29 µM; in assay [3], 56.8 µM; in [4], 41.5 µM; in assay [5], 28.5 µM; in [6], 27.1 µM. The TGI was 28.6 µM in assay [7], 31.6 µM in [8], over 80.6 µM in [9] and 22.2 µM in [10].

In the case of `CCOc1ccc(NC(=O)C(=O)CC(=O)c2c[n+](=O)c3cc(C)c(C)cc3n2[O-])cc1`, the TGI in assay [1], in assay [2], in assay [3], in assay [4], in assay [5] and in [6] was over 100 µM in each case. For the same compound, the TGI in assay [7], in [8], in assay [9] and in assay [10] was over 100 µM throughout.

As for `O=C(N/C(=C\c1ccc(/C=C(\NC(=O)c2ccccc2)c2nc3cc([N+](=O)[O-])ccc3[nH]2)cc1)c1nc2cc([N+](=O)[O-])ccc2[nH]1)c1ccccc1`, the TGI in assay [1], in assay [2], in assay [3], in assay [4], in [5] and in [6] was over 100 µM each time. Besides, the TGI in [7], in assay [8], in [9] and in [10] was over 100 µM in each case.

For `c1ccc2cc(-c3cc(-c4cc(-c5ccc6ccccc6c5)on4)no3)ccc2c1`, the TGI in assay [1], in assay [2], in [3], in assay [4], in assay [5] and in [6] was over 100 µM each time. In addition, the TGI in [7], in [8], in assay [9] and in assay [10] was over 100 µM in each case.

In the case of `COC(CN1C(=O)c2cccc3cccc(c23)C1=O)OC`, the TGI in assay [1], in assay [2], in assay [3], in [4], in [5] and in [6] was over 100 µM in each case. Moreover, the TGI in assay [7], in assay [8], in assay [9] and in [10] was over 100 µM throughout.

Regarding `O=C(Nc1ccc(Cl)c(Cl)c1)Nc1ccc(Cl)c(Cl)c1`, the GI50 in [1] is 2.19 µM and 1.23 µM; in assay [2], 2.67 µM and 1.77 µM; in assay [3], 3.1 µM and 2.83 µM; in assay [4] it was 2.98 µM and 3.57 µM; in assay [5], 3.92 µM and 3.88 µM; in assay [6], 2.81 µM and 2.57 µM. Further, the GI50 in assay [7] is 1.77 µM and 2.07 µM; in [8], 3.03 µM and 1.66 µM; in assay [9], 1.79 µM and 0.997 µM; in assay [10] it was 2.26 µM and 2.95 µM. In addition, the TGI was 5.81 µM and 4.47 µM in [1]; 11.2 µM and 5.14 µM in assay [2]; 11.8 µM and 10.7 µM in assay [3]; 14.6 µM and 47.7 µM in assay [4]; 15.1 µM and 14.5 µM in [5]; 11.6 µM and 6.57 µM in assay [6]. Besides, the TGI was 3.3 µM and 3.69 µM in [7]; 10.9 µM and 5.9 µM in assay [8]; 6.99 µM and 5.33 µM in assay [9]; 4.94 µM and 10.3 µM in assay [10].

For the compound `COc1ccc2c(c1)/C(=C/c1c(C)nc3sc(C)nn13)C(=O)N2`, the GI50 was 9.86 µM in [1]; 4.08 µM in assay [2]; 7.2 µM in assay [3]; 14.7 µM in assay [4]; 3.06 µM in [5]; 17.6 µM in assay [6]. Moreover, the GI50 in [7] is 0.614 µM; in [8], 0.959 µM; in [9], 4.17 µM; in assay [10], 5.49 µM. For the same compound, the TGI in assay [1] is over 77.8 µM; in assay [2], over 100 µM; in assay [3] it was over 100 µM; in assay [4], over 100 µM; in [5] it was over 50.5 µM; in assay [6], over 100 µM. The TGI in assay [7] is 4.96 µM; in assay [8], 37.9 µM; in assay [9], over 100 µM; in assay [10], over 100 µM.

Take `CCCCCCCCCCCCCCCCCC(CCCCCCCCCCCCCCCCC)OP(=O)(O)O`: the TGI in assay [1], in assay [2], in assay [3], in assay [4], in [5] and in assay [6] was over 100 µM throughout. Moreover, the TGI in assay [7], in assay [8], in [9] and in assay [10] was over 100 µM each time.

Regarding `CSc1nc2c(c(=O)[nH]1)N=C1c3ccccc3C(=O)C1C(c1ccccc1)N2` (stereo not given), the GI50 in [1] is 12 µM; in assay [2], 3.52 µM; in assay [3] it was 6.39 µM; in [4], 5.62 µM; in assay [5], 4.55 µM; in assay [6], 22 µM. Further, the GI50 in assay [7] is 3.53 µM; in [8] it was 2.12 µM; in assay [9] it was 3.01 µM; in assay [10], 5.65 µM. Besides, the TGI in [1], in assay [2], in assay [3], in assay [4], in assay [5] and in assay [6] was over 100 µM in each case. For the same compound, the TGI in [7] was over 100 µM; in assay [8], 5.67 µM; in assay [9], over 100 µM; in [10], over 100 µM.

With `C=C(CN1CCN(c2ccc(Cl)cc2F)CC1)c1ccc(C(=O)Nc2ccccc2N)cc1`, the GI50 was 1.57 µM in assay [1]; 1.8 µM in assay [2]; 1.87 µM in [3]; 2.61 µM in assay [5]; 0.867 µM in assay [6]; 16.7 µM in [7]. Moreover, the GI50 in [8] was 2.29 µM; in [9] it was 0.628 µM; in assay [10] it was 3 µM. Besides, the TGI was over 27.4 µM in assay [1]; 21.5 µM in [2]; over 100 µM in assay [3]; over 66.6 µM in assay [4]; over 100 µM in assay [5]; 12.4 µM in assay [6]. The TGI is over 95.3 µM in assay [7], over 100 µM in assay [8], 3.21 µM in assay [9] and 8.43 µM in assay [10].

Take `CCCCC(=O)OCC(=O)[C@]1(O)Cc2c(O)c3c(c(O)c2[C@@H](OC2CC(NC(=O)C(F)(F)F)C(O)C(C)O2)C1)C(=O)c1c(OC)cccc1C3=O` (stereo not given in full): the TGI in assay [1] turned out to be 3.88 µM; in [2], 2.81 µM; in [3], 3.91 µM; in [4], 8.71 µM; in [5], 4.99 µM; in assay [6], 2.62 µM. Moreover, the TGI in assay [7] is 3.69 µM; in [8] it was 20.1 µM; in assay [9] it was 32.7 µM; in [10], 1.37 µM.

Consider `COC(=O)[C@@H]1[C@H](O)[C@H](C)[C@H](O)[C@@](C)(O)/C=C\C=C(C)C(=O)Nc2c(C)c(OC(C)=O)c3c(c2O)C(=O)C(C)=C2OCOC(=C23)C(C)=C[C@@](C)(O)[C@H](O)[C@@H](C)[C@H]1OC(C)=O`, for which the TGI is over 100 µM in [1]; > 100 µM and > 66.9 µM and 62.8 µM in [2]; > 100 µM and 66.9 µM in assay [3]; > 100 µM and 66.9 µM in assay [4]; over 100 µM in assay [5]; over 100 µM in [6]. Further, the TGI in [7] was > 100 µM and 29 µM and 37.3 µM; in assay [8], 87.6 µM and 66.9 µM and > 100 µM; in [9], > 100 µM and 66.9 µM and 96.5 µM; in assay [10], > 100 µM and 66.9 µM and 41.7 µM. For the same compound, the GI50 in assay [2] was over 66.9 µM; in assay [3], 49.8 µM; in [4] it was 63.2 µM; in [5], over 66.9 µM; in assay [8] it was 56.5 µM; in [9], 24.1 µM.

With `Cc1nc2ccccc2c(N)c1-c1cc(C)c2c(C)nc3ccccc3c2n1`, the GI50 in assay [1] was 1.46 µM; in assay [2] it was 0.288 µM; in assay [3], 1.41 µM; in assay [4] it was 0.831 µM; in assay [5], 0.628 µM; in assay [6], 0.182 µM. Also, the GI50 in assay [7] is 0.817 µM; in assay [8], 0.69 µM; in assay [9], 0.173 µM; in assay [10], 0.248 µM. In addition, the TGI was found to be 3.38 µM in assay [1]; 0.959 µM in assay [2]; 2.9 µM in assay [3]; 2.4 µM in assay [4]; 2.08 µM in assay [5]; 0.737 µM in assay [6]. In addition, the TGI in [7] was determined as 2.25 µM; in assay [8], 1.83 µM; in assay [9] it was 0.52 µM; in assay [10] it was 0.717 µM.

On to `COc1ccccc1C12OC(=O)C1(C)Oc1ccccc1C2=O` (stereo not given), for which the TGI in assay [1], in [2], in [3], in [4], in [5] and in assay [6] was over 100 µM each time. The TGI in assay [7], in assay [8], in [9] and in assay [10] was over 100 µM in each case.
